Test results reported in PMC9866218, “Characterization and Chemical Synthesis of Cm39 (α-KTx 4.8): A Scorpion Toxin That Inhibits Voltage-Gated K^+ Channel KV1.2 and Small- and Intermediate-Conductance Ca^2+-Activated K^+ Channels KCa2.2 and KCa3.1” (Toxins, 2023).
Bridge positions count the residues as written; N and C are the ends. Ends that are not written are not given here.

Key:
hKV1.3 = assay type: cell-based, human
Source text: (§1) We, therefore, aimed at testing the pharmacological activity of sCm39 on a battery of various potassium and sodium ion channels. Among the tested channels were six members of human voltage-gated K^+ (hKV) channels from Shaker family, hKV1.1-hKV1.6 (Figure 3A–F) and three members of Ca^2+-activated potassium channel; hKCa2.2 (SK2, Figure 3I), the small-conductance Ca^2+-activated channel; hKCa3.1 (IKCa1, SK4. Figure 3J), the intermediate-conductance Ca^2+-activated channel expressed in T lymphocytes; and mKCa1.1 (BK, Slo1, MaxiK, Figure 3H), the large-conductance voltage- and Ca^2+-activated channel of mice. In addition, we also screened the effect of Cm39 on hKV11.1 (hERG1, Figure 3G), a voltage-gated cardiac K^+ channel, and two human voltage-gated sodium (hNaV) channels, hNaV1.4 (Figure 3K) and hNaV1.5 (Figure 3L), expressed in skeletal and cardiac muscles, respectively. These ion channels were heterologously expressed in the CHO or HEK cell lines except for KV1.3. Human peripheral T lymphocytes. They were stimulated with Phytohemagglutinin A (PHA) to increase the KV1.3 channel expression, and Ca^2+-free intracellular solution was used to avoid KCa3.1 channel activation. Appropriate depolarization protocols were used to record ionic currents in voltage-clamped cells (see Figure 3 insets and Material and Methods for details). Freshly dissolved sCm39 in extracellular solution was applied at 1 µM concentration on the cell using a custom-built micro-perfusion system at ~200 µL/min flow rate.
For the measurement of KV1.x, mKCa1.1 and NaV1.x currents the extracellular solution was composed of (in mM) 145 NaCl, 5 KCl, 2.5 CaCl2, 1 MgCl2, 10 HEPES and 5.5 glucose, pH 7.35. In the HK-150 and Na^+-free bath solution bath all Na^+ was substituted by K^+ or Choline-Cl, respectively, other ingredients remained unchanged. […]
Whole-cell currents were recorded in voltage-clamped cells following standard protocols by using a Multiclamp 700B amplifier connected to a computer with Axon Digidata1440 digitizer and for data acquisition, Clampex 10.7 software was used (Molecular Devices).

hKV1.6 = assay type: cell-based, human
Source text: as §1
(§2) Chinese hamster ovary (CHO) cells (gift from Yosef Yarden, Weizmann Institute of Science, Rehovot, Israel) were maintained by culturing in Dulbecco’s modified Eagle medium (DMEM, Gibco) supplemented with 2 mM L-glutamine, 10% FBS, 100 µg/mL streptomycin and 100 U/mL penicillin-g (Sigma-Aldrich) at a density of 0. 5−1×10^6 cells per mL in a humidified incubator at 37 °C and 5% CO2. Cells were passaged 3 times in a week following a 2–5 min incubation in 0.05% trypsin-EDTA solution at 37 °C. Cultures were used up to passage number 20. PCR-based tests were routinely used to detect mycoplasma infection, only mycoplasma-free cultures were used for experiments.
(§3) Those plasmids which lack a fluorescent tag were co-transfected with a plasmid encoding GFP. Transfections were performed at a GFP:channel DNA molar ratio of 1:10 using the Lipofectamine 2000 kit (Invitrogen) according to the manufacturer’s protocol. […] Generally, currents were recorded 24 to 48 h post transfection.
(§4) For the measurement of KV1.x, mKCa1.1 and NaV1.x currents the extracellular solution was composed of (in mM) 145 NaCl, 5 KCl, 2.5 CaCl2, 1 MgCl2, 10 HEPES and 5.5 glucose, pH 7.35. In the HK-150 and Na^+-free bath solution bath all Na^+ was substituted by K^+ or Choline-Cl, respectively, other ingredients remained unchanged. In the various TEA^+-containing solutions, Na^+ was substituted by tetraethylammonium-Cl in equimolar concentration (Figure 3). The bath solution for KCa2.2 and KCa3.1 consisted of (in mM) 145 L-Aspartic Na^+ salt, 5 KCl, 2.5 CaCl2, 1 MgCl2, 5.5 glucose and 10 HEPES, pH 7.4 and for KV11.1 (in mM) 140 Choline-Cl, 5 KCl, 2 MgCl2, 2 CaCl2, 10 HEPES, 20 glucose and 0.1 CdCl2, pH 7.35. The osmolarity of bath solutions was ranging between 302 to 308 mOsm/L. A total of 0.1 mg/mL bovine serum albumin (BSA, Sigma-Aldrich, Budapest, Hungary) was added to all the bath solutions before the patch-clamp assay to avoid toxin adsorption to the plastic surfaces of the perfusion system. Internal or pipette solution for recording KV1.x and mKCa1.1 currents consisted of (in mM) 140 KF, 2 MgCl2, 1 CaCl2, 11 EGTA and 10 HEPES, pH 7.22.

hKV1.1 = assay type: cell-based, human
Source text: as §1, §2, §3, §4

mKCa1.1 = assay type: cell-based, mice
Source text: as §1, with “rate. […]” for “rate.”
Whole-cell currents were recorded in voltage-clamped cells following standard protocols by using a Multiclamp 700B amplifier connected to a computer with Axon Digidata1440 digitizer and for data acquisition, Clampex 10.7 software was used (Molecular Devices). […]

KCa3.1 channel = conditions: cited from earlier work
Source text: (§5) Most of the peptides in subfamily 4 are very similar (percentage identity ranging from 78 to 97%) and share common pharmacological targets, including KV1.3, KV1.2 and KCa channels. […] Not all subfamily 4 toxins have been tested on the KV1.3 channel, but for those that were te ... || To date, a number of scorpion-derived peptide toxins are known to block K^+ channels with great affinity. However, these native toxins target more than one channel which compromises their therapeutic use in the management of channelopathies.

[1] = system: several KV1.x channel subtypes and Ca^2+-activated channels; conditions: high affinity; cited from earlier work
Source text: To date, a number of scorpion-derived peptide toxins are known to block K^+ channels with great affinity. However, these native toxins target more than one channel which compromises their therapeutic use in the management of channelopathies.

hKV1.2 = molecular target: T1, hKV1.2 (Homo sapiens, UniProt P16389); assay: Whole-cell patch-clamp, block of KV1.2 current; assay type: cell-based; conditions: fully reversible blocker as positive control
T1 construct: GFP (vector pCMV6-AC-GFP); host or cells: CHO cells, transient transfection
T1 sequence (P16389 whole entry): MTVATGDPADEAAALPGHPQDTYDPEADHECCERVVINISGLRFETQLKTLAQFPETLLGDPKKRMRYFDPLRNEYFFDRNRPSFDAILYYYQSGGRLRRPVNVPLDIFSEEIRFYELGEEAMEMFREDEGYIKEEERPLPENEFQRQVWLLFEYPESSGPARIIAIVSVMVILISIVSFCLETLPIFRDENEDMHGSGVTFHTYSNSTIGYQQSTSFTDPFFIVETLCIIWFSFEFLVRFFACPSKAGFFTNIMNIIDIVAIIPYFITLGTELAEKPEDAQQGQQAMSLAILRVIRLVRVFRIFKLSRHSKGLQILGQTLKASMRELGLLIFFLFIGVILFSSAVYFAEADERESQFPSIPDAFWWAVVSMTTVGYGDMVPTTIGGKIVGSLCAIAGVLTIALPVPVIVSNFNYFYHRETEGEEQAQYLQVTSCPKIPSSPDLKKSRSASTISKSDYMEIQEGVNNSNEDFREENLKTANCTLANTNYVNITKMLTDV
Source text: as §1
For comprehensive characterization of Cm39 activity on KV1.2, we determined the concentration–response of current inhibition by Cm39, the kinetic parameters of its binding and assessed the effect on voltage dependence of steady-state activation. The whole-cell KV1.2 currents were recorded in CHO cells using depolarization pulses to +50mV from −120mV holding potential (Vh) every 15 s. Since the activation kinetics of KV1.2 are highly variable, the duration of pulses was set on a cell-by-cell basis between 15–300 ms to allocate sufficient time for reaching maximum currents at the test potentials. […] The remaining current fractions (RCF = I/I0, where I0 is the peak current in the absence of the toxin, and I is the peak current at equilibrium block in the presence of sCm39 at a given concentration) were calculated and plotted as a function of toxin concentration.
Single-exponential decay functions were fitted to the normalized peak currents in the presence of each sCm39 concentration (Figure 4C, data points in red shades) to determine the time constant for the onset of block (τon, wash-in or association time constant). The dissociation time constant for the relief from block (τoff, wash-out time constant) was obtained by fitting a single-exponential rising function to the normalized peak currents in the wash-out procedure (Figure 4C, data point in black empty circles). Assuming a simple bimolecular interaction between the toxin and the channel, time constants for the onset and recovery from the block can be stated as follows:(1) τon=1/kon×[toxin]+koff , τoff=1/koff where kon represents the second-order association rate constant, koff indicates the first-order dissociation rate constant and [toxin] is the sCm39 concentration. […] The second-order rate constant of association (kon) was determined by fitting the 1/τon data points using linear regression with koff as the y-intercept.

KV1.2 = conditions: cited from earlier work
Source text: Most of the peptides in subfamily 4 are very similar (percentage identity ranging from 78 to 97%) and share common pharmacological targets, including KV1.3, KV1.2 and KCa channels. […] Not all subfamily 4 toxins have been tested on the KV1.3 channel, but for those that were te ...

KV1.3 = conditions: cited from earlier work
Source text: Most of the peptides in subfamily 4 are very similar (percentage identity ranging from 78 to 97%) and share common pharmacological targets, including KV1.3, KV1.2 and KCa channels. […] Not all subfamily 4 toxins have been tested on the KV1.3 channel, but for those that were te ... || Generally, scorpion toxins interact at two different regions of KV channels to modify their function. Typical functional dyad (lysine and tyrosine) bearing toxins bind to the extracellular vestibule in such a way that lysine goes deep into selectivity filter, thereby plugging the pore of the channel. Other toxins interact with the voltage-sensing domain (VSD) causing the significant change in gating of the channel.

KCa2.2 channel = conditions: cited from earlier work
Source text: as §5

CC[N+](CC)(CC)CC [TEA^+, tetraethylammonium chloride, reference compound]
current response to positive control (hKV1.3): decrease in the current | current response to positive control (hKV1.6): decrease in the current | current response to positive control (hKV1.1): decrease in the current | current response to positive control (mKCa1.1): decrease in the current

ChTx
Kd (KCa3.1 channel): 5 nM | affinity range [1]: picomolar to nanomolar | current response to positive control (hKV1.2): decrease in the current | effect on KV1.2 (KV1.2): shows effects | effect on KV1.3 (KV1.3): shows effects

Leiurotoxin I: isolated from Leiurus quinquestriatus hebraeus (AFCNLRMCQLSCRSLGLLGKCIGDKCECVKH; UniProt P16341 1-31, looked up)
inhibition of KCa2.x subtypes (KCa2.2 channel; small-conductance Ca^2+-activated potassium channel KCa2.x subtypes): potent inhibitor

MgTx (TIINVKCTSPKQCLPPCKAQFGQSAGAKCMNGKCKCYPH; UniProt P40755 1-39, looked up)
affinity range [1]: picomolar to nanomolar

apamin (CNCKAPETALCARRCQQH-NH2; disulfide 1-11, 3-15; ends not checked; UniProt P01500 28-45, looked up)
blocking effect on KCa2 (small-conductance K^+ channel, SK) (KCa2.2 channel): picomolar range
